# Source: patent US5888993A, “Vanadium compounds in the treatment of elevated blood sugar levels” (The University of British Columbia, priority 1997, dated 1999)
# Where “and” joins values, the source holds several entries; their conditions need not be identical. Identical values can stand only once.
# Key:
# diabetic rats [1] = assay: Comparison of BMOV and vanadyl kojate, acute time course of plasma glucose, rats made diabetic with STZ; assay type: in vivo, rat; set-up: plasma glucose level: unit not given here
# Procedure: Using BMOV and Vanadyl Kojate as prepared in Examples 1 and 2 above, the relative efficacy of the two compounds was assessed using rats made diabetic with STZ. Again the animals were divided into responder and non-responder groups. For a 0.063 mmol V/kg ip injection, BMOV gave a 50:50 split between responder and non-responder groups whereas for vanadyl kojate the ratio was 60:40. On oral gavage of 0.55 mmol V/kg the responder:non-responder ratios were 50:50 and 57:43 respectively (n=10). However over a 12 day test period, there was a 100% response in terms of blood glucose reduction for diabetic rats receiving vanadyl kojate orally.
# diabetic rats [2] = assay: Comparative testing, plasma glucose after oral gavage in STZ diabetic rats; assay type: in vivo, male wistar rats; settings: oral gavage 1 mmol/kg
# Procedure: Diabetes was induced in all animals by a single intravenous injection of streptozotocin (STZ) 60 mg/kg in 0.9% NaCl via the tail vein. Three days after STZ injection, blood was collected from the tail by nicking the tail tip and expressing the blood into heparinized capillary tubes. Blood was centrifuged at 20,000 g for 10 minutes to separate the plasma. Glucose analysis was done immediately on the plasma sample using a Boehringer Mannheim kit. […] One week after STZ injection animals were randomly divided into 3 pairs of rats. Each pair of rats received by oral gavage 1 mmol/kg of BMOV or VO(Sal)2 or VO(acac)2, suspended in 3% acacia.
# non diabetic rats = assay: Previous laboratory studies of BMOV in non diabetic rats; assay type: in vivo, rat; settings: 0.75 mg/ml
# Procedure: 11 SHR and 12 WKY rats (all male) were procured at 4 weeks of age from Charles River, Canada. The animals were divided into four experimental groups: SHR (untreated n=5), SHRO (BMOV treated n=6), WKY (untreated n=8) and WKYO (BMOV treated n=4). Chronic BMOV treatment was commenced on the SHRO and WKYO groups at 5 weeks of age. The rats were given BMOV (0.75 mg/ml) ad libitum in the drinking water.
structure (smiles),measurement,setting,value
"Cc1occc(=O)c1[O-].Cc1occc(=O)c1[O-].[O]=[V+2] [BMOV, Bis(maltolato)oxovanadium(IV)]",plasma glucose level,"diabetic rats [1]; i.p. 0.063 mmol/kg, nonresponders (DTN), 0 h",19.42
same,plasma glucose level,"diabetic rats [1]; i.p. 0.063 mmol/kg, nonresponders (DTN), 1 h",18.82
same,plasma glucose level,"diabetic rats [1]; i.p. 0.063 mmol/kg, nonresponders (DTN), 2 h",18.51
same,plasma glucose level,"diabetic rats [1]; i.p. 0.063 mmol/kg, nonresponders (DTN), 4 h",17.94
same,plasma glucose level,"diabetic rats [1]; i.p. 0.063 mmol/kg, nonresponders (DTN), 6 h",18.08
same,plasma glucose level,"diabetic rats [1]; i.p. 0.063 mmol/kg, nonresponders (DTN), 8 h",17.77
same,plasma glucose level,"diabetic rats [1]; i.p. 0.063 mmol/kg, nonresponders (DTN), 12 h",19.07
same,plasma glucose level,"diabetic rats [1]; i.p. 0.063 mmol/kg, nonresponders (DTN), 24 h",19.01
same,plasma glucose level,"diabetic rats [1]; i.p. 0.063 mmol/kg, responders (DTR), 0 h",17.51
same,plasma glucose level,"diabetic rats [1]; i.p. 0.063 mmol/kg, responders (DTR), 1 h",14.77
same,plasma glucose level,"diabetic rats [1]; i.p. 0.063 mmol/kg, responders (DTR), 2 h",12.65
same,plasma glucose level,"diabetic rats [1]; i.p. 0.063 mmol/kg, responders (DTR), 4 h",10.6
same,plasma glucose level,"diabetic rats [1]; i.p. 0.063 mmol/kg, responders (DTR), 6 h",10.28
same,plasma glucose level,"diabetic rats [1]; i.p. 0.063 mmol/kg, responders (DTR), 8 h",9.08
same,plasma glucose level,"diabetic rats [1]; i.p. 0.063 mmol/kg, responders (DTR), 12 h",9.38
same,plasma glucose level,"diabetic rats [1]; i.p. 0.063 mmol/kg, responders (DTR), 24 h",7.15
same,plasma glucose level,"diabetic rats [1]; oral gavage 0.55 mmol/kg, nonresponders (DTN), 0 h",19.31
same,plasma glucose level,"diabetic rats [1]; oral gavage 0.55 mmol/kg, nonresponders (DTN), 1 h",18.05
same,plasma glucose level,"diabetic rats [1]; oral gavage 0.55 mmol/kg, nonresponders (DTN), 2 h",17.57
same,plasma glucose level,"diabetic rats [1]; oral gavage 0.55 mmol/kg, nonresponders (DTN), 4 h",16.92
same,plasma glucose level,"diabetic rats [1]; oral gavage 0.55 mmol/kg, nonresponders (DTN), 6 h",16.43
same,plasma glucose level,"diabetic rats [1]; oral gavage 0.55 mmol/kg, nonresponders (DTN), 8 h",15.02
same,plasma glucose level,"diabetic rats [1]; oral gavage 0.55 mmol/kg, nonresponders (DTN), 12 h",17.17
same,plasma glucose level,"diabetic rats [1]; oral gavage 0.55 mmol/kg, nonresponders (DTN), 24 h",18.07
same,plasma glucose level,"diabetic rats [1]; oral gavage 0.55 mmol/kg, responders (DTR), 0 h",18.09
same,plasma glucose level,"diabetic rats [1]; oral gavage 0.55 mmol/kg, responders (DTR), 1 h",14.55
same,plasma glucose level,"diabetic rats [1]; oral gavage 0.55 mmol/kg, responders (DTR), 2 h",13.13
same,plasma glucose level,"diabetic rats [1]; oral gavage 0.55 mmol/kg, responders (DTR), 4 h",11.68
same,plasma glucose level,"diabetic rats [1]; oral gavage 0.55 mmol/kg, responders (DTR), 6 h",9.47
same,plasma glucose level,"diabetic rats [1]; oral gavage 0.55 mmol/kg, responders (DTR), 8 h",9.27
same,plasma glucose level,"diabetic rats [1]; oral gavage 0.55 mmol/kg, responders (DTR), 12 h",7.01
same,plasma glucose level,"diabetic rats [1]; oral gavage 0.55 mmol/kg, responders (DTR), 24 h",6.31
same,blood glucose reducing effect vs compounds of Comparative Examples 15 and 16,diabetic rats [2],superior
same,plasma glucose level,"diabetic rats [2]; 0 h, individual rats (two per drug)",23.02 mM and 23.01 mM
same,plasma glucose level,"diabetic rats [2]; 2 h, individual rats",23.87 mM and 23.15 mM
same,plasma glucose level,"diabetic rats [2]; 4 h, individual rats",22.27 mM and 23.32 mM
same,plasma glucose level,"diabetic rats [2]; 6 h, individual rats",21.21 mM and 22.09 mM
same,plasma glucose level,"diabetic rats [2]; 8 h, individual rats",20.26 mM and 19.45 mM
same,plasma glucose level,"diabetic rats [2]; 12 h, individual rats",9.97 mM and 8.73 mM
same,plasma glucose level,"diabetic rats [2]; 24 h, individual rats",0.8 mM and 1.0 mM
same,plasma insulin levels,non diabetic rats,sufficient to lower plasma insulin levels
